From patent US6599713B1, “Method for quantitating leukocyte count in whole blood sample” (priority 1999, dated 2003) come the findings set out here.

The subject of assay [1] is white blood cells contained in the whole blood. As to the kind of experiment: Concentration of surfactant and release amount of MPO in whole blood, ELISA (Example 2). The format is cell-based, human. The settings on record: 60 minutes on ice, mean ± SD of 3. The procedure:
10 ml of healthy human whole blood was collected and immediately mixed with 10 mg of EDTA-2K (manufactured and sold by Dojin Laboratories, Japan), and the resultant EDTA-containing whole blood sample was subjected to the below-described various measurements within 1 hour from the blood collection.
500 μl of the blood was put in a 2-ml Eppendorf tube, and 500 μl of an aqueous surfactant solution having a surfactant concentration of 0.1, 0.2, 0.4, 0.6, 1, 2, 4, 10 or 20% (w/v) was added to the tube, and the resultant mixture was stirred for 2 seconds by a Vortex mixer. Subsequently, the mixture was allowed to stand for 60 minutes on ice to thereby lyze the white blood cells. […] After the lysis of the white blood cells, 100 μl of the mixture was taken out and added to 900 μl of a PBS solution containing dissolved therein 1% BSA (trade name: “Sigma fraction V”, manufactured and sold under the brand of SIGMA™, U.S.A.). The resultant mixture was stirred by a Vortex mixer, and then 10 μl of the mixture was taken out and diluted 2,000-fold with 1% BSA/PBS solution. The resultant diluted mixture was subjected to a measurement by ELISA.
The outline of the ELISA is as follows. A 5 μg/ml PBS solution of a rabbit anti-human myeloperoxidase antibody (manufactured and sold by Calbiochem-Novabiochem Corporation, U.S.A.)(hereinafter, frequently referred to as “anti-MPO antibody”) was put into the wells of a Nunc Immuno Plate (manufactured and sold by Nalge Nunc International, Denmark) in an amount of 100 μl per well. The solution in each well was sealed and subjected to a reaction for 18 hours at 4° C. thereby immobilizing the primary antibody. The wells were washed with a washing solution (0.05% Tween™ 20/PBS) and then subjected to blocking for 1 hour at room temperature by using 200 μl of a blocking solution (1% BSA/PBS), and then washed twice with the washing solution. Then, the above-obtained diluted mixture (blood sample which had been treated with a surfactant and then diluted) was put in the wells in an amount of 100 μl per well, and subjected to a reaction for 2 hours at room temperature. Then, the wells were washed 3 times with the washing solution, and a 5 μg/ml solution of an anti-MPO antibody labeled with horseradish peroxidase (hereinafter referred to as “HRP”) was put in the wells in an amount of 100 μl per well, and subjected to a reaction for 1 hour at room temperature. As the above-mentioned HRP-labeled anti-MPO antibody, an anti-human MPO antibody (manufactured and sold by Calbiochem-Novabiochem Corporation, U.S.A.) which had been labeled with HRP Grade IV (manufactured and sold under the brand of SIGMA™, U.S.A.) was employed. The labeling was performed by the method described in Analytical Biochemistry, 132, 68-73 (1983). The wells were washed 5 times with the washing solution, and 100 1 μl of a just-prepared TMB solution (manufactured and sold by Kirkegaad & Perry Laboratories, U.S.A.) was added thereto to effect a color reaction. 2 Minutes after the start of the color reaction, 100 μl of a 1 N sulfuric acid solution (manufactured and sold by Nacalai Tesque, Inc., Japan) was added to the wells to thereby terminate the reaction. Then, the absorbance at 450 nm was measured by means of a plate reader (manufactured and sold by Bio-Rad Laboratories, U.S.A.). The measurement was conducted 3 times, and a mean value±standard deviation was obtained.
(In general: In an ELISA, binding on a coated surface is turned into a signal by an enzyme label.)

Assay [2] has as its system white blood cells contained in a whole blood sample. Put plainly: MPO-releasing effects of various surfactants on whole blood, ELISA (Examples 3 to 5). In kind it is cell-based, human. The settings on record: Example 3 (Table 3): 500 μl blood + 500 μl 1% (w/v) surfactant solution, 60 minutes on ice, mean ± SD of 3. The procedure:
10 ml of healthy human whole blood was collected using a 28 G winged intravenous injection needle (manufactured and sold by Terumo Corporation, Japan), and immediately mixed with 10 mg of EDTA-2K (manufactured and sold by Dojin Laboratories, Japan), and the resultant EDTA-containing whole blood sample was subjected to the below-described various measurements within 1 hour from the blood collection.
500 μl of the blood was put in a 2-ml Eppendorf tube, and 500 μl of a 1% (w/v) aqueous surfactant solution was added to the tube, and the resultant mixture was stirred for 2 seconds by a Vortex mixer. Subsequently, the mixture was allowed to stand for 60 minutes on ice to thereby lyze the white blood cells. After the lysis of the white blood cells, 100 μl of the mixture was taken out and added to 900 μl of a PBS solution containing dissolved therein 1% BSA (trade name: “Sigma fraction V”, manufactured and sold under the brand of SIGMA™, U.S.A.). The resultant mixture was stirred by a Vortex mixer, and then 10 μl of the mixture was taken out and diluted 2,000-fold with 1% BSA/PBS solution. The resultant diluted mixture was subjected to a measurement by ELISA.
The outline of the ELISA is as follows. A 5 μg/ml PBS solution of an anti-MPO antibody was put into the wells of a Nunc Immuno Plate (manufactured and sold by Nalge Nunc International, Denmark) in an amount of 100 μl per well. The solution in each well was sealed and subjected to a reaction for 18 hours at 4° C. thereby immobilizing the primary antibody. The wells were washed with a washing solution (0.05% Tween™ 20/PBS) and then subjected to blocking for 1 hour at room temperature by using 200 μl of a blocking solution (1% BSA/PBS), and then washed twice with the washing solution. […] The wells were washed 5 times with a washing solution, and 100 μl of a just-prepared TMB solution (manufactured and sold by Kirkegaad & Perry Laboratories, U.S.A.) was added thereto to effect a color reaction. 2 Minutes after the start of the color reaction, 100 μl of a 1 N sulfuric acid solution (manufactured and sold by Nacalai Tesque, Inc., Japan) was added to the wells to thereby terminate the reaction. Then, the absorbance at 450 nm was measured by means of a plate reader (manufactured and sold by Bio-Rad Laboratories, U.S.A.).
With respect to the measurement of the MPO concentration of the sample, MPO (manufactured and sold by Elastin Products Co., INC., U.S.A.) was added to the sample so that the final concentration of the added MPO became 5 ng/ml or 10 ng/ml, and the resultant mixture was measured with respect to the MPO concentration. From the obtained value of MPO concentration, a calibration curve for each sample was obtained. The obtained calibration curve was corrected, based on its relationship with a calibration curve obtained with respect to a standard MPO solution, and the corrected calibration curve of each sample was used to determine the MPO concentration of the whole blood. The measurement was conducted 3 times, and a mean value±standard deviation was obtained.

For the substance “α-[4-(1,1,3,3,-Tetramethylbutyl)phenyl]-ω-hydroxypoly(oxy-1,2-ethanediyl) [Triton ™ X-100]”, the “Release amount of MPO in whole blood” value in assay [1] (concentration of surfactant 0.05 % (w/v)) is 0.104 ± 0.005 Abs. 450 nm; in assay [1] (concentration of surfactant 0.10 % (w/v)) it was 0.161 ± 0.009 Abs. 450 nm; in assay [1] (concentration of surfactant 0.20 % (w/v)) it was 0.202 ± 0.006 Abs. 450 nm; in assay [1] (concentration of surfactant 0.30 % (w/v)), 0.228 ± 0.009 Abs. 450 nm; in assay [1] (concentration of surfactant 0.50 % (w/v)), 0.262 ± 0.005 Abs. 450 nm; in assay [1] (concentration of surfactant 1.00 % (w/v)), 0.245 ± 0.011 Abs. 450 nm. For the same substance, the “Release amount of MPO in whole blood” value was 0.216 ± 0.004 Abs. 450 nm in assay [1] (concentration of surfactant 2.00 % (w/v)), 0.228 ± 0.007 Abs. 450 nm in assay [1] (concentration of surfactant 5.00 % (w/v)) and 0.227 ± 0.007 Abs. 450 nm in assay [1] (concentration of surfactant 10.00 % (w/v)). In addition, in assay [2], the “MPO concentration of whole blood” value is 6.43 ± 1.25 µg/mL.
